Test results reported in patent US10568868B2, “Methods and compositions for treating metabolic reprogramming disorders” (THE JOHNS HOPKINS UNIVERSITY, priority 2015, dated 2020).

Legend:
[1] = tested on: CD4+ and CD8+ T cells; assay: T cell proliferation (eFluor 670 dilution) of splenocytes stimulated with anti-CD3; format: cell-based, C57BL/6 mice; conditions: anti-CD3, 72 h; DON 5 μM; 2-DG 0.6 mM; Metformin 1 mM
[2] = tested on: CD4+ T cells; assay: Extracellular flux analysis (ECAR, OCR) of CD4+ T cells stimulated with anti-CD3/CD28; format: cell-based, 5C.C7 mice; conditions: 2-DG 10 mM; Metformin 50 mM; DON 30 μM; after anti-CD3/CD28
Procedure: Extracellular flux analysis: Cells were initially plated to XF assay medium, modified DMEM (Seahorse Bioscience) containing 25 mM glucose, 2 mM L-glutamine, and 1 mM sodium pyruvate, and incubated in a non-CO2 incubator at 37° C. for 30 minutes. OCR and ECAR were measured at 37° C. in a XF96 Extracellular Flux Analyzer (Seahorse Bioscience) using manufacturer recommended protocols. After baseline measurements, OCR and ECAR were measured after sequentially adding anti-CD3/CD28 and metabolic reprogramming agents into each well to the indicated final concentrations using the included ports on the XF96 cartridges. All data were collected using the XF Reader software from Seahorse Bioscience.
OCR is an indicator of mitochondrial OXPHOS, and ECAR is predominantly a measure of lactic acid formed during glycolytic energy metabolism, and thus reflects overall glycolytic flux. Primary, naïve 5C.C7 CD4^+ T cells were incubated with pigeon cytochrome c (PCC) peptide for 48 hrs and then expanded and rested in IL-2 for an additional 5 days to generate previously activated CD4^+ cells. After measuring the baseline bioenergetics of these resting CD4^+ cells, cells were re-stimulated with anti-CD3/CD28 (FIG. 9A and FIG. 9B). […] Upon reaching the peak of glycolytic flux, metabolic reprogramming agents were administered to the cells. 2-DG is a glucose analog that inhibits hexokinase, the first enzyme in the glycolytic pathway (Rowe et al. (2013) Nature Medicine 19(4):488-493). […] Metformin is a commonly used oral hypoglycemic that activates AMPK, inhibits mitochondrial respiratory complex I and promotes fatty acid oxidation (Buzzai et al. (2007) Cancer Research 67(14):6745-6752; El-Mir et al. (2000) The Journal of Biological Chemistry 275(1):223-228).

[3] = tested on: CD4+ and CD8+ T cells; assay: IFN-γ secretion of anti-CD3 stimulated splenocytes (ELISA); format: cell-based, C57BL/6 mice; conditions: anti-CD3, 24 h; DON 5 μM; 2-DG 0.6 mM; Metformin 1 mM
[4] = Pharmacokinetics of DON in swine plasma and CSF after i.v. infusion of DON, compound 14b or compound 47; format: in vivo; conditions: for CSF-to-plasma ratio of DON: 60 min post-administration; for amount of DON delivered to the CSF relative to DON: CSF at 60 min post-dose
Procedure: Compound: Compound 47 was dissolved in a sterile saline containing 5% ethanol and 5% Tween 80 on the date of administration.
Swine: Swine studies were conducted under a protocol approved by the Johns Hopkins Animal Care and Use Committee. Adult, female Gottingen×Yucutan miniature swine (Massachusetts General Hospital, MA) were housed in Johns Hopkins University facilities accredited by the Association for Assessment and Accreditation of Laboratory Animal Care International in compliance with the Animal Welfare Act, Animal Welfare Regulations, and the Public Health Service Policy on the Humane Care and Use of Laboratory Animals. Animals were maintained on a 14-h light and 10-h dark schedule, provided ad libitum water and a commercial miniswine diet (Teklad, Madison, Wis.) with environmental enrichment (fruit/vegetables) twice daily.

[5] = In vitro liver microsomal stability, human microsomes
[6] = In vitro liver microsomal stability, pig microsomes
[7] = tested on: glutaminase; assay: Glutaminase activity analysis of activated CD4+ T cells (radiolabeled assay); format: cell-based, mice; conditions: anti-CD3/CD28, 24 hrs; DON 5 μM
Procedure: Glutaminase activity analysis: Glutaminase activity measurement was adapted from previously described protocols (Thomas et al. (2013) Biochemical and Biophysical Research Communications 438(2):243-248). Briefly, T cells were lysed in ice-cold potassium phosphate buffer (45 mM, pH 8.2) containing protease inhibitors (Roche, Complete Protease Inhibitor Cocktail, 1 tablet in 50 ml) and incubated with 3H-glutamine (0.03 μM, 0.91 μCi) for 90 min at room temperature. The reactions were carried out in 50 μl reaction volumes in a 96-well microplate. At the end of the reaction period, the assay was terminated upon the addition of imidazole buffer (20 mM, pH 7). 96-well spin columns packed with strong anion ion-exchange resin (Bio-Rad, AG® 1-X2 Resin, 200-400 mesh, chloride form) were used to separate the substrate and the reaction product. Unreacted ^3H-glutamine was removed by washing with imidazole buffer. ^3H-glutamate, the reaction product, was then eluted with 0.1 N HCl and analyzed for radioactivity using Perkin Elmer's TopCount instrument in conjunction with their 96-well LumaPlates. […]

[8] = tested on: arthritis in a mouse model; assay: Arthritis mouse model; conditions: in vivo
[9] = tested on: antigen-specific CD8+ T cells; format: in vivo, mice; conditions: DON added to 2DG+Metformin therapy
[10] = tested on: pneumonitis in a mouse model; assay: Pneumonitis mouse model; conditions: in vivo
[11] = tested on: mouse model of Acute Respiratory Distress Syndrome (ARDS); assay: Mouse model of acute respiratory distress syndrome (ARDS); format: in vivo, mice; conditions: treated on day 2 & 4
Source text: FIG. 17A, FIG. 17B, and FIG. 17C show targeting glutamine in a mouse model of acute respiratory distress syndrome (ARDS). Mice were challenged with Ips (FIG. 17A) to induce ARDS and treated with DON on day 2 & 4.

[12] = tested on: mouse model of Pulmonary Fibrosis; assay: Mouse model of pulmonary fibrosis (intratracheal bleomycin); design: species or system mice; conditions: in vivo
Procedure: Mice were treated with intratracheal bleomycin to induce fibrosis.

[13] = tested on: cerebral malaria; assay: Cerebral malaria in mice; format: in vivo; conditions: treated on day 5 post infection and on day 6, every other day
Procedure: FIG. 19A and FIG. 19B show the targeting of glutamine metabolism to cure Cerebral malaria. Mice were treated on day 5 post infection and on day 6 (12 hours before subsequent death) with DON every other day.

[14] = tested on: Balb/c to C57BL/6 skin allograft; assay: Murine skin transplantation (Balb/c to C57BL/6); format: in vivo, mice
[15] = tested on: antigen-specific CD4+ T cells; format: in vivo, mice
[16] = tested on: Balb/c to C57BL/6 heart allograft; assay: Murine heterotopic heart transplantation (Balb/c to C57BL/6); design: species or system mice; conditions: mouse, in vivo
Procedure: Murine heterotopic heart transplantation: BALB/c mice served as heart donors and C57BL/6 mice serve as allograft recipients. Either abdominal or cervical heterotopic heart transplantation was performed according to previously published methods (Corry et al. (1973) Transplantation 16(4):343-350; Oberhube et al. (2014) J Vis Exp 92:e50753). Functionality of the transplanted heart was monitored daily by palpation. Clinical rejection was defined by cessation of palpable heartbeats and confirmed by autopsy. Loss of graft function within 48 hrs of transplantation was considered as a technical failure, and animals in which this occurred were omitted from the analysis.
Finally, this metabolic reprogramming therapy with at least three metabolic reprogramming agents was employed in a Balb/c to C57BL/6 heart transplantation, which is a vascularized solid organ transplantation model. Strikingly, when recipient mice were treated with metabolic reprogramming therapy with at least three metabolic reprogramming agents, the grafted hearts continued beating for more than 100 days post-transplantation without rejection (FIG. 15F).

[17] = In vitro plasma stability, pig plasma; format: in vitro ADME
[18] = In vitro plasma stability, monkey plasma; format: in vitro ADME, monkeys
[19] = In vitro plasma stability, human plasma; format: in vitro ADME
[20] = In vitro plasma stability, mouse plasma; format: in vitro ADME, mice
[21] = In vitro plasma stability, dog plasma; format: in vitro ADME

## O=CC[C@@H](O)[C@H](O)[C@H](O)CO [Compound 2-DG, 2-deoxy-D-glucose]
[1]
  T cell proliferation: inhibited T cell proliferation and cytokine production in a dose-dependent manner
[2]
  ECAR (glycolytic flux) of activated T cells: sharp decrease
  OCR (OXPHOS) of activated T cells: insignificant increase
[3]
  IFN-γ (cytokine) production: inhibited T cell proliferation and cytokine production in a dose-dependent manner

## CC(C)OC(=O)[C@H](CCC(=O)C=[N+]=[N-])NC(=O)OC(OC(=O)C(C)(C)C)c1ccccc1 (some centres unmarked) [Compound 47]
[4]
  CSF-to-plasma ratio of DON: increased CSF-to-plasma ratios
  amount of DON delivered to the CSF relative to DON: substantially higher amounts of DON

## CC(C)C[C@H](N)C(=O)N[C@@H](CCC(=O)C=[N+]=[N-])C(=O)OC(C)C [Compound 9]
[5]
  liver microsomal stability: moderate-high stability
[6]
  liver microsomal stability: moderate-high stability

## [N-]=[N+]=CC(=O)CC[C@H](N)C(=O)O [DON, 6-Diazo-5-oxo-L-norleucine]
[7]
  glutaminase activity of activated T cells: significantly abrogated
[1]
  T cell proliferation: decreased
[8]
  arthritis: treated arthritis
[9]
  CD8+ T cell effector function: very potent inhibition
[10]
  pneumonitis: treated pneumonitis
[2]
  ECAR (glycolytic flux) of activated T cells: did not have an obvious impact
  OCR (OXPHOS) of activated T cells: did not have an obvious impact
[11]
  lung damage: less lung damage
  recovery (weight gain): more rapid recovery (weight gain)
[12]
  lung damage: markedly decreased lung damage
  recruitment/generation of lung fibrocytes: decrease in the recruitment/generation of lung fibrocytes
[13]
  death (survival): prevent death at such a late stage of disease
[14]; fully MHC-mismatched
  skin allograft rejection / graft survival: prevents transplant rejection and prolongs skin graft survival
[14]; treatment from day 0 until rejection, no treatment 11 days
  skin graft median survival time (MST): 22 days
[3]
  IFN-γ (cytokine) production: decreased
[15]; DON added to 2DG+Metformin therapy
  CD4+ T cell effector function: very potent inhibition
[15]; relative frequency
  frequency of Foxp3+ CD4+ T cells (Tregs) in vivo: increased the relative frequency of regulatory T cells
[16]
  heart transplant rejection: able to prevent heart transplant rejection

## CC(=O)N[C@@H](Cc1c[nH]c2ccccc12)C(=O)N[C@@H](CCC(=O)C=[N+]=[N-])C(=O)OC(C)C [Compound 60a]
[5]
  liver microsomal stability: moderate-high stability
[6]
  liver microsomal stability: moderate-high stability

## CC(C)OC(=O)[C@H](CCC(=O)C=[N+]=[N-])NC(=O)[C@@H](N)Cc1c[nH]c2ccccc12 [Compound 38a]
[5]
  liver microsomal stability: moderate-high stability
[6]
  liver microsomal stability: moderate-high stability

## CN(C)C(=N)N=C(N)N [metformin]
[1]
  T cell proliferation: inhibited T cell proliferation and cytokine production in a dose-dependent manner
[2]
  ECAR (glycolytic flux) of activated T cells: increase
  OCR (OXPHOS) of activated T cells: marked suppression
[3]
  IFN-γ (cytokine) production: inhibited T cell proliferation and cytokine production in a dose-dependent manner

## CC(C)OC(=O)[C@H](CCC(=O)C=[N+]=[N-])NC(=O)O[C@H](C)OC(=O)C(C)(C)C (single isomer, unassigned) [Compound 14b]
[17]
  plasma stability: stable
[18]
  plasma stability: stable
[4]
  CSF-to-plasma ratio of DON: increased CSF-to-plasma ratios
  amount of DON delivered to the CSF relative to DON: substantially higher amounts of DON
[19]
  plasma stability: stable
[20]
  plasma stability: rapidly metabolized
[21]
  plasma stability: stable
